Reference: patent US9828413B2, “Vancomycin derivative, and preparation method and application thereof” (ACESYS PHARMA INC., priority 2013, dated 2017)
Values after ≈ are worked out from the molar mass of the structure shown. Like-named read-outs stand apart in the source and are kept apart here.

Columns and labels:
[1] = test system: Staphylococcus aureus Mu50; assay: In vitro activity assay, minimum inhibitory concentration (MIC), cup-plate method; assay type: cell-based
Description: (§1) In vitro activity assay was performed according to Microbiological Identification of Antibiotics, Appendix XIA, Volume II, Chinese Pharmacopoeia 2010. Vancomycin-sensitive Staphylococcus aureus strains (Newman and Mu 50) were selected as the test strains, and trypticase soy broth was selected as the culture medium.

[2] = test system: Staphylococcus aureus Newman; assay: as above; assay type: cell-based; details: read-out: MIC values, Staphylococcus aureus Newman
Description: as §1

[3] = Solubility test of compounds in water; details: 25 °C, thermodynamic from solid
[4] = data from US2010/045201; cited from earlier work
[5] = physchem; details: 25 °C, water, thermodynamic from solid
[6] = strain Mu50, trypticase soy broth, read-out: MIC values, Staphylococcus aureus Mu50
[7] = strain Newman, trypticase soy broth

| Compound | MIC ([1]; MU50, read-out: MIC values, Staphylococcus aureus Mu50) | MIC ([2]; NEWMAN) | solubility at 30 min [3] | Solubility in water [4] | MIC [1, 6] | MIC [2, 7] | solubility at 30 min [5] |
| --- | --- | --- | --- | --- | --- | --- | --- |
| CN[C@H](CC(C)C)C(=O)N[C@H]1C(=O)N[C@@H](CC(N)=O)C(=O)N[C@H]2C(=O)N[C@H]3C(=O)N[C@H](C(=O)N[C@H](C(=O)O)c4cc(O)cc(O)c4-c4cc3ccc4O)[C@H](O)c3ccc(c(Cl)c3)Oc3cc2cc(c3O[C@@H]2O[C@H](CO)[C@@H](O)[C@H](O)[C@H]2O[C@H]2C[C@](C)(N)[C@H](O)[C@H](C)O2)Oc2ccc(cc2Cl)[C@H]1O [Vancomycin] | 8 µg/mL (≈ 5.52 µM) | 2 µg/mL (≈ 1.38 µM) | ≥ 100 mg/mL |  |  |  |  |
| Oritavancin |  |  |  | <0.1 mg/mL |  |  |  |
| CN[C@H](CC(C)C)C(=O)N[C@@H]1C(=O)NC(CC(N)=O)C(=O)NC2C(=O)NC3C(=O)N[C@H](C(=O)NC(C(=O)O)c4cc(O)cc(O)c4-c4cc3ccc4O)[C@H](O)c3ccc(c(Cl)c3)Oc3cc2cc(c3OC2OC(CO)C(O)C(O)C2OC2CC(C)(NCC(OCc3ccc(-c4ccc(Cl)cc4)cc3)C(=O)OC)C(O)C(C)O2)Oc2ccc(cc2Cl)C1O (stereo partly shown) [Compound V13] |  |  |  |  | 2 µg/mL (≈ 1.14 µM) | < 0.125 µg/mL | 50 to 60 mg/mL (≈ 28500 to 34200 µM) |
| CN[C@H](CC(C)C)C(=O)NC1C(=O)N[C@@H](CC(N)=O)C(=O)N[C@H]2C(=O)NC3C(=O)N[C@H](C(=O)N[C@@H](C(=O)O)c4cc(O)cc(O)c4-c4cc3ccc4O)[C@H](O)c3ccc(c(Cl)c3)Oc3cc2cc(c3OC2OC(CO)C(O)C(O)C2OC2CC(C)(NCC(OC)C(=O)O)C(O)C(C)O2)Oc2ccc(cc2Cl)[C@H]1O (stereo partly shown) [Compound V27] |  |  |  |  | 64 µg/mL (≈ 41.3 µM) | 16 µg/mL (≈ 10.3 µM) | 20 mg/mL (≈ 12900 µM) |
| CC(C)C[C@@H](N)C(=O)NC1C(=O)N[C@@H](CC(N)=O)C(=O)N[C@H]2C(=O)NC3C(=O)N[C@H](C(=O)N[C@@H](C(=O)O)c4cc(O)cc(O)c4-c4cc3ccc4O)[C@H](O)c3ccc(c(Cl)c3)Oc3cc2cc(c3OC2OC(CO)C(O)C(O)C2OC2CC(C)(NCC(OCc3ccc(-c4ccc(Cl)cc4)cc3)C(=O)O)C(O)C(C)O2)Oc2ccc(cc2Cl)[C@H]1O (stereo partly shown) [Compound V54] |  |  |  |  | 2 µg/mL (≈ 1.16 µM) | < 0.125 µg/mL | 15 to 20 mg/mL (≈ 8700 to 11600 µM) |
| CCCCCCOC(CNC1(C)CC(OC2C(Oc3c4cc5cc3Oc3ccc(cc3Cl)[C@@H](O)[C@@H]3NC(=O)C(NC(=O)[C@@H]5NC(=O)[C@H](CC(N)=O)NC(=O)C(NC(=O)[C@H](N)CC(C)C)[C@H](O)c5ccc(c(Cl)c5)O4)c4ccc(O)c(c4)-c4c(O)cc(O)cc4[C@H](C(=O)O)NC3=O)OC(CO)C(O)C2O)OC(C)C1O)C(=O)O (stereo partly shown) [Compound V60] |  |  |  |  | 8 µg/mL (≈ 4.98 µM) | 2 µg/mL (≈ 1.24 µM) | > 20 mg/mL |
| CN[C@H](CC(C)C)C(=O)N[C@@H]1C(=O)NC(CC(N)=O)C(=O)NC2C(=O)NC3C(=O)N[C@H](C(=O)NC(C(=O)O)c4cc(O)cc(O)c4-c4cc3ccc4O)[C@H](OC3CC(C)(N)C(O)C(C)O3)c3ccc(c(Cl)c3)Oc3cc2cc(c3OC2OC(CO)C(O)C(O)C2OC2CC(C)(NCC(OCc3ccc(-c4ccc(Cl)cc4)cc3)C(=O)O)C(O)C(C)O2)Oc2ccc(cc2Cl)C1O (stereo partly shown) [Compound V63] |  |  |  |  | 2 µg/mL (≈ 1.06 µM) | < 0.125 µg/mL | 5 to 20 mg/mL (≈ 2660 to 10600 µM) |
| CCCCOC(CNC1(C)CC(OC2C(Oc3c4cc5cc3Oc3ccc(cc3Cl)[C@@H](O)[C@@H]3NC(=O)C(NC(=O)C5NC(=O)C(CC(N)=O)NC(=O)[C@@H](NC(=O)[C@@H](CC(C)C)NC)C(O)c5ccc(c(Cl)c5)O4)c4ccc(O)c(c4)-c4c(O)cc(O)cc4C(C(=O)O)NC3=O)OC(CO)C(O)C2O)OC(C)C1O)C(=O)OC (stereo partly shown) [Compound V16] |  |  |  |  | 64 µg/mL (≈ 39.8 µM) | 16 µg/mL (≈ 9.95 µM) | ≥ 60 mg/mL |
| CN[C@H](CC(C)C)C(=O)NC1C(=O)N[C@@H](CC(N)=O)C(=O)N[C@H]2C(=O)NC3C(=O)N[C@H](C(=O)N[C@@H](C(=O)O)c4cc(O)cc(O)c4-c4cc3ccc4O)[C@H](O)c3ccc(c(Cl)c3)Oc3cc2cc(c3OC2OC(CO)C(O)C(O)C2OC2CC(C)(NCC(OCc3ccc(-c4ccccc4)cc3)C(=O)O)C(O)C(C)O2)Oc2ccc(cc2Cl)[C@H]1O (stereo partly shown) [Compound V24] |  |  |  |  | 8 µg/mL (≈ 4.7 µM) | 4 µg/mL (≈ 2.35 µM) | > 10 mg/mL |
| CN[C@H](CC(C)C)C(=O)N[C@@H]1C(=O)NC(CC(N)=O)C(=O)NC2C(=O)NC3C(=O)N[C@H](C(=O)NC(C(=O)O)c4cc(O)cc(O)c4-c4cc3ccc4O)[C@H](OC3CC(C)(N)C(O)C(C)O3)c3ccc(c(Cl)c3)Oc3cc2cc(c3OC2OC(CO)C(O)C(O)C2OC2CC(C)(NCC(OCc3ccc(-c4ccccc4Cl)cc3)C(=O)O)C(O)C(C)O2)Oc2ccc(cc2Cl)C1O (stereo partly shown) [Compound V64] |  |  |  |  | 2 µg/mL (≈ 1.06 µM) | < 0.125 µg/mL | 5 to 20 mg/mL (≈ 2660 to 10600 µM) |
| CCCCCCOC(CNC1(C)CC(OC2C(Oc3c4cc5cc3Oc3ccc(cc3Cl)[C@@H](O)[C@@H]3NC(=O)C(NC(=O)[C@@H]5NC(=O)[C@H](CC(N)=O)NC(=O)C(NC(=O)[C@@H](CC(C)C)NC)[C@H](O)c5ccc(c(Cl)c5)O4)c4ccc(O)c(c4)-c4c(O)cc(O)cc4[C@H](C(=O)O)NC3=O)OC(CO)C(O)C2O)OC(C)C1O)C(=O)O (stereo partly shown) [Compound V32] |  |  |  |  | 8 µg/mL (≈ 4.93 µM) | 2 µg/mL (≈ 1.23 µM) | 50 to 60 mg/mL (≈ 30800 to 37000 µM) |
| CN[C@H](CC(C)C)C(=O)NC1C(=O)N[C@@H](CC(N)=O)C(=O)N[C@H]2C(=O)NC3C(=O)N[C@H](C(=O)N[C@@H](C(=O)O)c4cc(O)cc(O)c4-c4cc3ccc4O)[C@H](O)c3ccc(c(Cl)c3)Oc3cc2cc(c3OC2OC(CO)C(O)C(O)C2OC2CC(C)(NCC(OCc3ccc(C)cc3)C(=O)O)C(O)C(C)O2)Oc2ccc(cc2Cl)[C@H]1O (stereo partly shown) [Compound V23] |  |  |  |  | 8 µg/mL (≈ 4.87 µM) | 2 µg/mL (≈ 1.22 µM) | > 8 mg/mL |
| CCCCCCCCCCOC(CNC1(C)CC(OC2C(Oc3c4cc5cc3Oc3ccc(cc3Cl)[C@@H](O)[C@@H]3NC(=O)C(NC(=O)C5NC(=O)C(CC(N)=O)NC(=O)[C@@H](NC(=O)[C@H](N)CC(C)C)C(O)c5ccc(c(Cl)c5)O4)c4ccc(O)c(c4)-c4c(O)cc(O)cc4C(C(=O)O)NC3=O)OC(CO)C(O)C2O)OC(C)C1O)C(=O)O (stereo partly shown) [Compound V68] |  |  |  |  | 8 µg/mL (≈ 4.81 µM) | 4 µg/mL (≈ 2.4 µM) | 5 to 10 mg/mL (≈ 3010 to 6010 µM) |
| CCCOC(CNC1(C)CC(OC2C(Oc3c4cc5cc3Oc3ccc(cc3Cl)[C@@H](O)[C@@H]3NC(=O)C(NC(=O)[C@@H]5NC(=O)[C@H](CC(N)=O)NC(=O)C(NC(=O)[C@@H](CC(C)C)NC)[C@H](O)c5ccc(c(Cl)c5)O4)c4ccc(O)c(c4)-c4c(O)cc(O)cc4[C@H](C(=O)O)NC3=O)OC(CO)C(O)C2O)OC(C)C1O)C(=O)O (stereo partly shown) [Compound V30] |  |  |  |  | 16 µg/mL (≈ 10.1 µM) | 4 µg/mL (≈ 2.53 µM) | 4 mg/mL (≈ 2530 µM) |
| CCCCCCCCCCOC(CNC1(C)CC(OC2C(Oc3c4cc5cc3Oc3ccc(cc3Cl)[C@@H](O)[C@@H]3NC(=O)C(NC(=O)C5NC(=O)C(CC(N)=O)NC(=O)[C@@H](NC(=O)[C@@H](CC(C)C)NC)C(O)c5ccc(c(Cl)c5)O4)c4ccc(O)c(c4)-c4c(O)cc(O)cc4C(C(=O)O)NC3=O)OC(CO)C(O)C2O)OC(C)C1O)C(=O)O (stereo partly shown) [Compound V67] |  |  |  |  | 4 µg/mL (≈ 2.38 µM) | 2 µg/mL (≈ 1.19 µM) | 5 to 10 mg/mL (≈ 2980 to 5960 µM) |
| CN[C@H](CC(C)C)C(=O)NC1C(=O)N[C@@H](CC(N)=O)C(=O)N[C@H]2C(=O)NC3C(=O)N[C@H](C(=O)N[C@@H](C(=O)O)c4cc(O)cc(O)c4-c4cc3ccc4O)[C@H](OC3CC(C)(N)C(O)C(C)O3)c3ccc(c(Cl)c3)Oc3cc2cc(c3OC2OC(CO)C(O)C(O)C2OC2CC(C)(NCC(OCc3ccccc3)C(=O)O)C(O)C(C)O2)Oc2ccc(cc2Cl)[C@H]1O (stereo partly shown) [Compound V61] |  |  |  |  | 8 µg/mL (≈ 4.52 µM) | 4 µg/mL (≈ 2.26 µM) | 20 mg/mL (≈ 11300 µM) |
| CCCCCCCCCCOC(CNC1(C)CC(OC2C(Oc3c4cc5cc3Oc3ccc(cc3Cl)[C@@H](OC3CC(C)(N)C(O)C(C)O3)[C@@H]3NC(=O)C(NC(=O)C5NC(=O)C(CC(N)=O)NC(=O)[C@@H](NC(=O)[C@@H](CC(C)C)NC)C(O)c5ccc(c(Cl)c5)O4)c4ccc(O)c(c4)-c4c(O)cc(O)cc4C(C(=O)O)NC3=O)OC(CO)C(O)C2O)OC(C)C1O)C(=O)O (stereo partly shown) [Compound V69] |  |  |  |  | 8 µg/mL (≈ 4.39 µM) | 2 µg/mL (≈ 1.1 µM) | 5 to 10 mg/mL (≈ 2750 to 5490 µM) |
| CC(C)C[C@@H](N)C(=O)N[C@@H]1C(=O)NC(CC(N)=O)C(=O)NC2C(=O)NC3C(=O)N[C@H](C(=O)NC(C(=O)O)c4cc(O)cc(O)c4-c4cc3ccc4O)[C@H](O)c3ccc(c(Cl)c3)Oc3cc2cc(c3OC2OC(CO)C(O)C(O)C2OC2CC(C)(NCC(OCc3ccccc3)C(=O)O)C(O)C(C)O2)Oc2ccc(cc2Cl)C1O (stereo partly shown) [Compound V51] |  |  |  |  | 32 µg/mL (≈ 19.8 µM) | 8 µg/mL (≈ 4.96 µM) | 20 mg/mL (≈ 12400 µM) |
